Laboratory results: patent US9464326B2, “Total and phosphorylated IL-1 receptor-associated kinase-1 and IL-1 receptor-associated kinase-4 as a biomarker for cancer progression and chemotherapy resistance” (University of Maryland, Baltimore, priority 2012, dated 2016)

Key:
[1] = system: A375 melanoma cells; experiment: Apoptosis by annexin-V/PI flow cytometry in A375; type: cell-based, human
Description: FIG. 8. IRAK-1,-4 inhibition sensitized melanoma cells to vinblastine-mediated cytotoxicity. (A) A375 and Malme-3M melanoma cells were cultured with or without 2.5 μM of IRAK-1,-4 and in the presence varying concentrations of vinblastine, cisplatin or 5′ Fluorouracil. Forty-eight hours later apoptosis was evaluated by staining cells with annexin-V and propidium iodide and analyzed by flow cytometry. (B) A375 cells were transfected via electroporation with siRNA-IRAK-1,-4. IRAK-1 protein levels were examined by Western blotting. […], A375-psiRNA-hIRAK-1, A375-psiRNA-hIRAK-4, or cells expressing both psiRNA-hIRAK-1 and -4 were cultured in the presence of vinblastine (100 nmol/L) for 48 hours and apoptosis was examined by flow cytometry. (C) A375 melanoma cells were cultured in the presence of vehicle alone (DMSO) or various concentrations of IRAK-1,-4. Forty-eight hours later cell lysates were used to analyze the expression of levels of cleaved PARP or caspase-3 by Western blots. (D) A375 melanoma cells were cultured with or without 2.5 μM of IRAK.-1,-4 and in the presence or absence of vinblastine for 48 hrs. PARP and caspase-3 levels were determined by Western blot.
FIG. 20. Role of TLR-induced cytokines and NF-kB on cell survival. […] The percentage of apoptotic cells was measured by staining cells with Annexin and PI 48 hours later and analyzed by flow cytometry. […] After 48 hours, apoptosis was measured by flow cytometry. […] Apoptosis was measured 48 hours later by flow cytometry.
The TLR1-TLR2 ligand tripalmitoyl-S-(bis(palmitoyloxy)propyl)-Cys-Ser-(Lys)3-Lys (Pam3Cys) was purchased from Invivogen (San Diego, Calif., USA). […] In some experiments cells were treated with the indicated concentrations of IRAK.-1,-4 inhibitor and vinblastine, cisplatin, and 5-fluorouracil (Sigma-Aldrich, St. Louis, Mo.), and apoptosis was quantitated by flow cytometry after staining cells with FITC-labeled annexin-V (BD Pharmingen, San Jose, Calif.) and propidium iodide (PI; Sigma-Aldrich).

[2] = system: H9; experiment: Proliferation (3H-thymidine) of H9; type: cell-based, human
Text: CCRF-CEM, CEM/C1, CEM/C2, CEM-C7, Jurkat, Loucy, Molt-4, HSB-2, SUP-T1, Hut 78, HH, Hut 102, MO, and H9 T-leukemia and T-lymphoma cell lines were purchased from the American Type Culture Collection (Manassas, Va., USA). All of the cell lines were initially expanded and cryopreserved within one month of receipt. Cells were typically used for 6 months at which time a fresh vial of cryopreserved cells was used. Total T cells from healthy donors were isolated via negative selection followed by positive selection using a CD3+ selection kit (Invitrogen, Carlsbad, Calif.). T cells were isolated from patients with T-ALL bone marrow or peripheral blood samples containing more than 70% leukemia cells using a CD2+ isolation kit (STEMCELL Technologies, Vancouver, Canada). All tissues were collected under institutional IRB-approved protocols and all participants gave written informed assent/consent. For in vitro experiments, T-ALL cells were cultured in AIM-V medium supplemented with 20% human AB serum in the presence of recombinant human stem cell factor (50 ng/mL; Amgen, Thousand Oaks, Calif.), insulin (20 nM; Sigma-Aldrich, St Louis, Mo., USA) and IL-7 (50 ng/mL; R&D Systems, Minneapolis, Minn., USA). In other experiments, protein lysate was collected using the Full Moon Biosystems (Sunnyvale, Calif., USA) buffer prior to protein examination by western blot or protein array.
Cells were cultured in a 96-well plate (Corning Costar, Corning, N.Y., USA) with various concentrations of TLR ligands 1-9, starting at 10 μg/ml, in a final volume of 200 ul. TLR ligands were diluted 2-fold. Cell lines (25-40×10^3/well) were cultured for 54 hours, whereas fresh patient-derived T-ALL cells (200×10^3/well) were cultured for 30 hours prior to adding [^3H]-thymidine for 18 hours. After this time point, cells were harvested with a Packard Filter-Mate-96 cell harvester (Perkin Elmer, Waltham, Mass., USA) and counted on Packard Top Count-NXT (Perkin Elmer, Waltham, Mass., USA). Results were expressed as average counts per minute (cpm). In some experiments CCRF-CEM cells were pre-treated with TLR1-TLR2 ligand (Pam3CysK4; 2.5 ug/ml) for 48 hrs, washed, and then cultured in the presence of varying concentrations of FBS. Forty-eight hours later, proliferation (±SD) was determined by ^3H-thymidine incorporation. Alternatively, apoptosis was measured by flow cytometry after staining cells with Annexin-V (BD Pharmingen, San Diego, Calif., USA) and propidium iodide (Sigma). Cell number was counted under microscopy by staining cells with trypan blue.
The following TLR ligands were purchased from Invivogen (San Diego, Calif., USA): tripalmitoyl-S-(bis(palmitoyloxy)propyl)-Cys-Ser-(Lys)3-Lys (TLR1-2); Poly I:C (TLR3); ultrapure S. Minnesota Lipopolysaccharide (TLR4); S. typhimurium flagellin (TLR5); FSL-1 (TLR2/6); Imiquimod (TLR7); ssRNA40/Lyovec (TLR8); CpG-ODN 2006 (TLR9).

Compound	sensitivity to vinblastine (apoptosis) ([1]; 2.5 μmol/L IRAK-1,-4 inhibitor with 0-200 nmol/L vinblastine, 48 h)	cisplatin's cytotoxicity ([1]; IRAK-1,-4 inhibitor with 0-50 nmol/L cisplatin)	melanoma apoptosis ([1]; inhibitor alone, absence of vinblastine)	Proliferative effects of TLR ligands ([2]; H9, 3H-thymidine uptake, 72 h)	effect on proliferation (in words) ([2]; H9 T-lymphoma, FIG. 1A)
O=C(Nc1nc2ccccc2n1CCN1CCOCC1)c1cccc([N+](=O)[O-])c1 [IRAK-1,-4 inhibitor]	increased sensitivity	did not increase	moderately increased		
tripalmitoyl-S-(bis(palmitoyloxy)propyl)-Cys-Ser-(Lys)3-Lys [Pam3Cysk4]				∘	no effect on proliferation
